Drawing on patent US7645752B2, “Sulfonyl substituted 1H-indoles as ligands for the 5-hydroxytryptamine receptors” (Wyeth LLC, priority 2006, dated 2010), this text covers melting point for 15 compounds.

Structures can show the parent of a compound that is named as a salt.

Usually melting point stands for the temperature of the solid-liquid transition. The compound `CN(C)CCc1ccc2[nH]cc(S(=O)(=O)c3ccccc3)c2c1` (as salt: hydrochloride) [Example 1, N,N-dimethyl-N-{2-[3-(phenylsulfonyl)-1H-indol-5-yl]ethyl}amine] had a melting point of 251 °C.
For `O=S(=O)(c1ccccc1)c1c[nH]c2c(CCN3CCOCC3)cccc12` (as salt: hydrochloride) [Example 28, 7-(2-morpholin-4-ylethyl)-3-(phenylsulfonyl)-1H-indole], the melting point was 246 to 248 °C (dec.).
For `CN(C)CCc1cccc2c(S(=O)(=O)c3ccccc3)c[nH]c12` (as salt: hydrochloride) [Example 18, N,N-dimethyl-N-{2-[3-(phenylsulfonyl)-1H-indol-7-yl]ethyl}amine] the value was 205 to 208 °C (dec.); for `O=S(=O)(c1ccccc1)c1c[nH]c2ccc(CCNC3CCCC3)cc12` (as salt: hydrochloride) [Example 5, N-{2-[3-(phenylsulfonyl)-1H-indol-5-yl]ethyl}cyclopentanamine], 252 °C; for `O=S(=O)(c1ccccc1)c1c[nH]c2cccc(CCNC3CCCCC3)c12` (as salt: hydrochloride) [Example 39, N-{2-[3-(phenylsulfonyl)-1H-indol-4-yl]ethyl}cyclohexanamine], 241 °C.
To `CC(C)CNCCc1cccc2[nH]cc(S(=O)(=O)c3ccccc3)c12` (as salt: hydrochloride) [Example 48, N-isobutyl-N-{2-[3-(phenylsulfonyl)-1H-indol-4-yl]ethyl}amine] belongs 220 °C.
On to `O=S(=O)(c1ccccc1)c1c[nH]c2ccc(CCN3CCOCC3)cc12` (as salt: hydrochloride) [Example 11, 5-(2-morpholin-4-ylethyl)-3-(phenylsulfonyl)-1H-indole], for which the melting point fell in the range of 250 to 255 °C.
To `CC(NCCc1cccc2[nH]cc(S(=O)(=O)c3ccccc3)c12)C(C)(C)C` (stereo not drawn) (as salt: hydrochloride) [Example 46, N-{2-[3-(phenylsulfonyl)-1H-indol-4-yl]ethyl}-N-(1,2,2-trimethylpropyl)amine] belongs 275 °C; to `NCCc1ccc2[nH]cc(S(=O)(=O)c3ccccc3)c2c1` (as salt: hydrochloride) [Example 12, {2-[3-(phenylsulfonyl)-1H-indol-5-yl]ethyl}amine], 200 °C; to `O=S(=O)(c1ccccc1)c1c[nH]c2c(CCNC3CC3)cccc12` (as salt: hydrochloride) [Example 22, N-{2-[3-(phenylsulfonyl)-1H-indol-7-yl]ethyl}cyclopropanamine], 213 to 216 °C (dec.).
`O=S(=O)(c1ccccc1)c1c[nH]c2cccc(CCNC3CC3)c12` (as salt: hydrochloride) [Example 36, N-{2-[3-(phenylsulfonyl)-1H-indol-4-yl]ethyl}cyclopropanamine] had a melting point of 145 to 150 °C.
In turn, `CCN(C)CCc1ccc2[nH]cc(S(=O)(=O)c3ccccc3)c2c1` (as salt: hydrochloride) [Example 7, N-ethyl-N-methyl-N-{2-[3-(phenylsulfonyl)-1H-indol-5-yl]ethyl}amine] showed a melting point of 203 °C.
The compound `CC(C)NCCc1cccc2[nH]cc(S(=O)(=O)c3ccccc3)c12` (as salt: hydrochloride) [Example 35, N-{2-[3-(phenylsulfonyl)-1H-indol-4-yl]ethyl}propan-2-amine] yielded a melting point of 185 to 187 °C.
To `O=S(=O)(c1ccccc1)c1c[nH]c2cccc(CCNCc3ccccc3)c12` (as salt: hydrochloride) [Example 47, N-benzyl-N-{2-[3-(phenylsulfonyl)-1H-indol-4-yl]ethyl}amine] belongs 172 °C; to `CC(C)(C)CNCCc1cccc2[nH]cc(S(=O)(=O)c3ccccc3)c12` (as salt: hydrochloride) [Example 49, N-(2,2-dimethylpropyl)-N-{2-[3-(phenylsulfonyl)-1H-indol-4-yl]ethyl}amine], 135 °C.
